Test results: US10829778B2, “Plants having increased tolerance to herbicides” (BASF SE, priority 2013, dated 2020)

Columns and labels:
[1] = test system: Picrophilus HPPD; assay: HPPD activity assay, wildtype enzyme; format: biochemical, Picrophilus torridus; settings: Table 12, normalized to Arabidopsis HPPD
Method: (§1) HPPD produces homogentisic acid and CO2 from 4-hydroxyphenylpyruvate (4-HPP) and O2. The activity assay for HPPD is based on the analysis of homogentisic acid by reversed phase HPLC.
(§2) The assay mixture can contain 150 mM potassium phosphate buffer pH 7.0, 50 mM L-ascorbic acid, 100 μM Catalase (Sigma-Aldrich), 1 μM FeSO4 and 0.2 units of purified HPPD enzyme in a total volume of 505 μl. 1 unit is defined as the amount of enzyme that is required to produce 1 nmol of HGA per minute at 20° C.
(§3) After a preincubation of 30 min the reaction is started by adding 4-HPP to a final concentration of 0.05 mM. The reaction is allowed to proceed for 45 min at room temperature. The reaction is stopped by the addition of 50 μl of 4.5 M phosphoric acid. The sample is filtered using a […] pore size PVDF filtration device.
(§4) 5 μl of the cleared sample is analyzed on an UPLC HSS T3 column (particle size 1.8 μm, dimensions 2.1×50 mm; Waters) by isocratic elution using 90% 20 mM NaH2PO4 pH 2.2, 10% methanol (v/v).
(§5) HGA is detected electrochemically at 750 mV (mode: DC; polarity: positive) and quantified by integrating peak areas (Empower software; Waters).
(§6) Inhibitors are dissolved in DMSO (dimethylsulfoxide) to a concentration of 0.5 mM. From this stock solution serial five-fold dilutions are prepared in DMSO, which are used in the assay. […] IC50 values are calculated using non-linear regression. […]

[2] = target: T1, HvHPPD L320Q (SEQ ID: 2) (Hordeum vulgare, UniProt O48604, A164G/L320Q/R146V/R147D/R148G); assay: HPPD activity assay, mutant enzyme; format: biochemical; settings: Table 16, normalized to Hordeum wild-type
T1 construct: His tag (N); made in house; host or cells: E. coli BL21 (DE3)
T1 sequence (O48604 whole entry R146V/R147D/R148G/A164G/L320Q): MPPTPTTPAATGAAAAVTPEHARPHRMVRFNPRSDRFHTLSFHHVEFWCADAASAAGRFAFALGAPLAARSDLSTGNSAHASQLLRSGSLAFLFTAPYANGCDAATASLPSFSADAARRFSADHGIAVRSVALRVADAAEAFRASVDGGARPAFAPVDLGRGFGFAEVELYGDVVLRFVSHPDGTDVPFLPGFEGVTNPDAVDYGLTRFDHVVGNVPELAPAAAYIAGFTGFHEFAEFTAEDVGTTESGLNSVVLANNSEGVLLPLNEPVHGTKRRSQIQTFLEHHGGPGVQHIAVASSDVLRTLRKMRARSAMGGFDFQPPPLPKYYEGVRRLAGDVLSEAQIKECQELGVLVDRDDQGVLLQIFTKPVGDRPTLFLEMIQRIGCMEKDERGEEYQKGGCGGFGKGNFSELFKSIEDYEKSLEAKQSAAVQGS
Method: as §1, §2, §3, §4, §5
(§7) Inhibitors are dissolved in DMSO (dimethylsulfoxide) to a concentration of 0.5 mM. From this stock solution serial five-fold dilutions are prepared in DMSO, which are used in the assay. The respective inhibitor solution accounts for 1% of the assay volume. […] Activities are normalized by setting the uninhibited enzyme activity to 100%. IC50 values are calculated using non-linear regression.
(§8) Purified, mutant HPPD enzymes are obtained by the methods described above. Dose response and kinetic measurements are carried out using the described HPPD activity assay. Apparent michaelis constants (Km) and maximal reaction velocities (Vmax) are calculated by non-linear regression with the software GraphPad Prism 5 (GraphPad Software, La Jolla, USA) using a substrate inhibition model. […] Weighted means (by standard error) of Km and IC50 values are calculated from at least three independent experiments.
(§9) Field performance of the optimized HPPD enzyme, which is used as a herbicide tolerance trait may depend not only on its lack of sensitivity towards HPPD inhibiting herbicides but also on its activity. To assess the potential performance of a herbicide tolerance trait a tolerance index (TI) is calculated using the following formula: […]
(§10) Easy comparison and ranking of each trait is enabled by normalizing tolerance indexes on Arabidopsis or Hordeum wild-type HPPD.

[3] = target: T2, Hordeum HPPD (SEQ ID: 2) I416V (Hordeum vulgare, UniProt O48604, A164G/I416V/R146V/R147D/R148G); assay: HPPD activity assay, mutant enzyme; format: biochemical; settings: Table 16, normalized to Hordeum wild-type
T2 construct: His tag (N); made in house; host or cells: E. coli BL21 (DE3)
T2 sequence (O48604 whole entry R146V/R147D/R148G/A164G/I416V): as the sequence (O48604 whole entry R146V/R147D/R148G/A164G/L320Q) above, with Q320L, I416V counted along it
Method: as §1, §2, §3, §4, §5, §7, §8, §9, §10

[4] = target: T3, Hordeum HPPD (SEQ ID: 2) L250M (Hordeum vulgare, UniProt O48604, A164G/L250M/R146V/R147D/R148G); assay: HPPD activity assay, mutant enzyme; format: biochemical; settings: Table 16, normalized to Hordeum wild-type
T3 construct: His tag (N); made in house; host or cells: E. coli BL21 (DE3)
T3 sequence (O48604 whole entry R146V/R147D/R148G/A164G/L250M): as the sequence (O48604 whole entry R146V/R147D/R148G/A164G/L320Q) above, with L250M, Q320L counted along it
Method: as §1, §2, §3, §4, §5, §7, §8, §9, §10

[5] = target: T4, Arabidopsis HPPD (SEQ ID: 53) M335H, P336A (Arabidopsis thaliana, UniProt P93836, M335H/P336A); assay: HPPD activity assay, mutant enzyme; format: biochemical; settings: Table 15, normalized to Arabidopsis wild-type
T4 construct: PCR-based site directed mutagenesis of pEXP5-NT/TOPO®-AtHPPD; His6 (N); made in house; host or cells: E. coli BL21 (DE3)
T4 sequence (P93836 whole entry M335H/P336A): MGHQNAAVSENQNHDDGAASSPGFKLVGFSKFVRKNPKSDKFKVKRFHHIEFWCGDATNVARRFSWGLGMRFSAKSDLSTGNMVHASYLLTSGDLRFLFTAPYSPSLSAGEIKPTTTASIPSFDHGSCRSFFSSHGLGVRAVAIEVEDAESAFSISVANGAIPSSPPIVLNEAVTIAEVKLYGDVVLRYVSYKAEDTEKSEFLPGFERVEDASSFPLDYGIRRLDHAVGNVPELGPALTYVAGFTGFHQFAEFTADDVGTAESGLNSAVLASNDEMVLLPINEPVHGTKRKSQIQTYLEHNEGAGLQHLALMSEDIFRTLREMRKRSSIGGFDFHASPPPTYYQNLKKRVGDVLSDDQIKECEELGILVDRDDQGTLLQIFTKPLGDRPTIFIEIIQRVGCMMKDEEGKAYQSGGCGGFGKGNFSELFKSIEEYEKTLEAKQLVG
Method: as §1, §2, §3, §4, §5, §7, §8, §9, §10

[6] = target: T5, Hordeum HPPD (SEQ ID: 2) R309K (Hordeum vulgare, UniProt O48604, A164G/R146V/R147D/R148G/R309K); assay: HPPD activity assay, mutant enzyme; format: biochemical; settings: Table 16, normalized to Hordeum wild-type
T5 construct: His tag (N); made in house; host or cells: E. coli BL21 (DE3)
T5 sequence (O48604 whole entry R146V/R147D/R148G/A164G/R309K): as the sequence (O48604 whole entry R146V/R147D/R148G/A164G/L320Q) above, with R309K, Q320L counted along it
Method: as §1, §2, §3, §4, §5, §7, §8, §9, §10

[7] = target: T6, HvHPPD L353M, P321R, L320Q (SEQ ID: 2) (Hordeum vulgare, UniProt O48604, L320Q/L353M/P321R); assay: HPPD activity assay, mutant enzyme; format: biochemical; settings: Table 16, normalized to Hordeum wild-type
T6 construct: His tag (N); made in house; host or cells: E. coli BL21 (DE3)
T6 sequence (O48604 whole entry R146V/R147D/R148G/A164G/L320Q/P321R/L353M): as the sequence (O48604 whole entry R146V/R147D/R148G/A164G/L320Q) above, with P321R, L353M counted along it
Method: as §1, §2, §3, §4, §5, §7, §8, §9, §10

[8] = target: T7, HvHPPD G407C (SEQ ID: 2) (Hordeum vulgare, UniProt O48604, A164G/G407C/R146V/R147D/R148G); assay: HPPD activity assay, mutant enzyme; format: biochemical; settings: Table 16, normalized to Hordeum wild-type
T7 construct: His tag (N); made in house; host or cells: E. coli BL21 (DE3)
T7 sequence (O48604 whole entry R146V/R147D/R148G/A164G/G407C): as the sequence (O48604 whole entry R146V/R147D/R148G/A164G/L320Q) above, with Q320L, G407C counted along it
Method: as §1, §2, §3, §4, §5, §7, §8, §9, §10

[9] = target: T8, Arabidopsis HPPD (SEQ ID: 53) F381L (Arabidopsis thaliana, UniProt P93836, F381L); assay: HPPD activity assay, mutant enzyme; format: biochemical; settings: Table 15, normalized to Arabidopsis wild-type
T8 construct: PCR-based site directed mutagenesis of pEXP5-NT/TOPO®-AtHPPD; His6 (N); made in house; host or cells: E. coli BL21 (DE3)
T8 sequence (P93836 whole entry F381L): as the sequence (P93836 whole entry M335H/P336A) above, with H335M, A336P, F381L counted along it
Method: as §1, §2, §3, §4, §5, §7, §8, §9, §10

[10] = target: T9, Arabidopsis HPPD (SEQ ID: 53) M335H, P336A, E363Q (Arabidopsis thaliana, UniProt P93836, E363Q/M335H/P336A); assay: HPPD activity assay, mutant enzyme; format: biochemical; settings: Table 15, normalized to Arabidopsis wild-type
T9 construct: PCR-based site directed mutagenesis of pEXP5-NT/TOPO®-AtHPPD; His6 (N); made in house; host or cells: E. coli BL21 (DE3)
T9 sequence (P93836 whole entry M335H/P336A/E363Q): as the sequence (P93836 whole entry M335H/P336A) above, with E363Q counted along it
Method: as §1, §2, §3, §4, §5, §7, §8, §9, §10

[11] = target: T10, HvHPPD L320H, P321A (SEQ ID: 2) (Hordeum vulgare, UniProt O48604, L320H/P321A); assay: HPPD activity assay, mutant enzyme; format: biochemical; settings: Table 16, normalized to Hordeum wild-type
T10 construct: His tag (N); made in house; host or cells: E. coli BL21 (DE3)
T10 sequence (O48604 whole entry R146V/R147D/R148G/A164G/L320H/P321A): as the sequence (O48604 whole entry R146V/R147D/R148G/A164G/L320Q) above, with Q320H, P321A counted along it
Method: as §1, §2, §3, §4, §5, §7, §8, §9, §10

[12] = test system: Chlamydomonas HPPD1a; assay: HPPD activity assay, wildtype enzyme; format: biochemical, Chlamydomonas reinhardtii; settings: Table 12, normalized to Arabidopsis HPPD
Method: as §1, §2, §3, §4, §5, §6

Question: Which “Normalized tolerance index TI Inhibitor 1” value [1] does the source give for `Cc1nonc1NC(=O)c1ccc(S(C)(=O)=O)c(S(C)(=O)=O)c1C` [Inhibitor 1, 2-methyl-N-(4-methyl-1,2,5-oxadiazol-3-yl)-3,4-bis(methylsulfonyl)benzamide] here?
Answer: 5.4

Question: And the “Normalized tolerance index TI Inhibitor 1” value [2]?
Answer: 1.1

Question: And the “Normalized tolerance index TI Inhibitor 1” value [3]?
Answer: 1.7

Question: And the “Normalized tolerance index TI Inhibitor 1” value [4]?
Answer: 2.1

Question: What about the “Normalized tolerance index TI Inhibitor 1” value [5] of the same molecule?
Answer: 2.4

Question: What about the “Normalized tolerance index TI Inhibitor 1” value [6] of the same molecule?
Answer: 1.6

Question: What about the “Normalized tolerance index TI Inhibitor 1” value [7] of the same molecule?
Answer: 12.6

Question: And the “Normalized tolerance index TI Inhibitor 1” value [8]?
Answer: 5

Question: What about the “Normalized tolerance index TI Inhibitor 1” value [9] of the same molecule?
Answer: 35.2

Question: And the “Normalized tolerance index TI Inhibitor 1” value [10]?
Answer: 6.7

Question: What about the “Normalized tolerance index TI Inhibitor 1” value [11] of the same molecule?
Answer: 5.3

Question: And the “Normalized tolerance index TI Inhibitor 1” value [12]?
Answer: 1.7
